Assay results reported in patent US10750743B2, “Pyridazinone herbicides” (E.I. DU PONT DE NEMOURS AND COMPANY, priority 2015, dated 2020).

Legend:
Format in all cases: in vivo
[1] = system: sedge, umbrella (small-flower umbrella sedge, Cyperus difformis); assay: Test B flooded paddy test, visual rating; settings: Flood, 250 g ai/ha, applied to paddy water, rated after 13 to 15 d
Method in brief: (§1)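 Plants grown to the 2-leaf stage. At treatment, pots were flooded to 3 cm above the soil, compound was applied directly to the paddy water, and that depth was held throughout. After 13 to 15 d in the greenhouse, response was rated visually against controls on a 0 (no effect) to 100 (complete control) scale.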

[2] = system: barnyardgrass (Echinochloa crus-galli); assay: Test B flooded paddy test, visual rating; settings: Flood, 250 g ai/ha, applied to paddy water, rated after 13 to 15 d
Method in brief: as §1

rice (Oryza sativa) = assay: Test B flooded paddy test, visual rating; settings: Flood, 250 g ai/ha, applied to paddy water, rated after 13 to 15 d
Method in brief: as §1

[3] = system: ducksalad (Heteranthera limosa); assay: Test B flooded paddy test, visual rating; settings: Flood, 250 g ai/ha, applied to paddy water, rated after 13 to 15 d
Method in brief: as §1

[4] = system: foxtail, giant (giant foxtail, Setaria faberii); assay: Test A preemergence, directed soil spray, visual injury rating; settings: 0 is no effect, 100 is complete control
Method in brief: (§2)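 Compounds in a surfactant-containing solvent were applied as a directed soil spray preemergence, or postemergence to plants 2-10 cm tall at the one- to two-leaf stage, in loam-sand blend. After about 10 d in the greenhouse, injury was rated visually against untreated controls on a 0-100 scale (100 = complete control).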

[5] = system: ryegrass, It. (Italian ryegrass, Lolium multiflorum); assay: as above; settings: 0 is no effect, 100 is complete control
Method in brief: as §2

[6] = system: ragweed (common ragweed, Ambrosia elatior); assay: as above; settings: 0 is no effect, 100 is complete control
Method in brief: as §2

[7] = system: barnyardgrass (Echinochloa crus-galli); assay: as above; settings: 0 is no effect, 100 is complete control
Method in brief: as §2

[8] = system: pigweed (Amaranthus retroflexus); assay: as above; settings: 0 is no effect, 100 is complete control
Method in brief: as §2

kochia (Kochia scoparia) [9] = assay: as above; settings: 0 is no effect, 100 is complete control
Method in brief: as §2

[10] = system: wheat (Triticum aestivum); assay: Test A postemergence application, visual injury rating; settings: 0 to 100 scale, 0 no effect, 100 complete control
Method in brief: as §2

[11] = system: foxtail, giant (giant foxtail, Setaria faberii); assay: as above; settings: 0 to 100 scale, 0 no effect, 100 complete control
Method in brief: as §2

corn (Zea mays) = assay: as above; settings: 0 to 100 scale, 0 no effect, 100 complete control
Method in brief: as §2

[12] = system: galium (catchweed bedstraw, Galium aparine); assay: as above; settings: 0 to 100 scale, 0 no effect, 100 complete control
Method in brief: as §2

[13] = system: ryegrass, It. (Italian ryegrass, Lolium multiflorum); assay: as above; settings: 0 to 100 scale, 0 no effect, 100 complete control
Method in brief: as §2

[14] = system: blackgrass (Alopecurus myosuroides); assay: as above; settings: 0 to 100 scale, 0 no effect, 100 complete control
Method in brief: as §2

[15] = system: ragweed (common ragweed, Ambrosia elatior); assay: as above; settings: 0 to 100 scale, 0 no effect, 100 complete control
Method in brief: as §2

[16] = system: barnyardgrass (Echinochloa crus-galli); assay: as above; settings: 0 to 100 scale, 0 no effect, 100 complete control
Method in brief: as §2

[17] = system: pigweed (Amaranthus retroflexus); assay: as above; settings: 0 to 100 scale, 0 no effect, 100 complete control
Method in brief: as §2

kochia (Kochia scoparia) [18] = assay: as above; settings: 0 to 100 scale, 0 no effect, 100 complete control
Method in brief: as §2

SMILES	Sedge, Umbrella plant response rating (0 to 100 scale, 0 is no effect, 100 is complete control) [1]	Barnyardgrass plant response rating (0 to 100 scale, 0 is no effect, 100 is complete control) [2]	Rice plant response rating (0 to 100 scale, 0 is no effect, 100 is complete control) (rice (Oryza sativa))	Ducksalad plant response rating (0 to 100 scale, 0 is no effect, 100 is complete control) [3]	Plant response rating (0 to 100 scale), Foxtail, Giant ([4]; 125 g ai/ha)	Plant response rating (0 to 100 scale), Ryegrass, It. ([5]; 125 g ai/ha)	Plant response rating (0 to 100 scale), Ragweed ([6]; 125 g ai/ha)	Plant response rating (0 to 100 scale), Barnyardgrass ([7]; 125 g ai/ha)	Plant response rating (0 to 100 scale), Pigweed ([8]; 125 g ai/ha)	Plant response rating (0 to 100 scale), Kochia (kochia (Kochia scoparia) [9]; 125 g ai/ha)	Wheat plant response rating ([10]; 125 g ai/ha)	Foxtail, Giant plant response rating ([11]; 125 g ai/ha)	Corn plant response rating (corn (Zea mays); 125 g ai/ha)	Galium plant response rating ([12]; 125 g ai/ha)	Ryegrass, It. plant response rating ([13]; 125 g ai/ha)	Blackgrass plant response rating ([14]; 125 g ai/ha)	Ragweed plant response rating ([15]; 125 g ai/ha)	Barnyardgrass plant response rating ([16]; 125 g ai/ha)	Pigweed plant response rating ([17]; 125 g ai/ha)	Kochia plant response rating (kochia (Kochia scoparia) [18]; 125 g ai/ha)	further results
CC(=O)Oc1c(C)nn(C)c(=O)c1-c1ccc(Cl)c2cc(C)oc12 [Compound 42]	60	0	0	80	50	90	40	60	40	0	0	30	10	90	90	50	10	40	50	0	Plant response rating (0 to 100 scale), Foxtail, Giant ([4]; 31 g ai/ha): 10; Plant response rating (0 to 100 scale), Ryegrass, It. ([5]; 31 g ai/ha): 60; Plant response rating (0 to 100 scale), Ragweed ([6]; 31 g ai/ha): 30; Plant response rating (0 to 100 scale), Barnyardgrass ([7]; 31 g ai/ha): 10; Plant response rating (0 to 100 scale), Pigweed ([8]; 31 g ai/ha): 0; Plant response rating (0 to 100 scale), Kochia (kochia (Kochia scoparia) [9]; 31 g ai/ha): 0; Wheat plant response rating ([10]; 31 g ai/ha): 0; Foxtail, Giant plant response rating ([11]; 31 g ai/ha): 10; Corn plant response rating (corn (Zea mays); 31 g ai/ha): 0; Galium plant response rating ([12]; 31 g ai/ha): 90; Ryegrass, It. plant response rating ([13]; 31 g ai/ha): 70; Blackgrass plant response rating ([14]; 31 g ai/ha): 20; Ragweed plant response rating ([15]; 31 g ai/ha): 20; Barnyardgrass plant response rating ([16]; 31 g ai/ha): 10; Pigweed plant response rating ([17]; 31 g ai/ha): 30; Kochia plant response rating (kochia (Kochia scoparia) [18]; 31 g ai/ha): 0
CCc1sc2ncccc2c1-c1c(O)c(C)nn(C)c1=O [Compound 18]	0	0	0	0	0	0	0	0	0	0	0	0	0	0	0	0	0	0	0	0	Plant response rating (0 to 100 scale), Foxtail, Giant ([4]; 500 g ai/ha): 0; Plant response rating (0 to 100 scale), Ryegrass, It. ([5]; 500 g ai/ha): 0; Plant response rating (0 to 100 scale), Ragweed ([6]; 500 g ai/ha): 0; Plant response rating (0 to 100 scale), Barnyardgrass ([7]; 500 g ai/ha): 0; Plant response rating (0 to 100 scale), Pigweed ([8]; 500 g ai/ha): 10; Plant response rating (0 to 100 scale), Kochia (kochia (Kochia scoparia) [9]; 500 g ai/ha): 0; Wheat plant response rating ([10]; 500 g ai/ha): 0; Foxtail, Giant plant response rating ([11]; 500 g ai/ha): 0; Corn plant response rating (corn (Zea mays); 500 g ai/ha): 0; Galium plant response rating ([12]; 500 g ai/ha): 20; Ryegrass, It. plant response rating ([13]; 500 g ai/ha): 0; Blackgrass plant response rating ([14]; 500 g ai/ha): 0; Ragweed plant response rating ([15]; 500 g ai/ha): 0; Barnyardgrass plant response rating ([16]; 500 g ai/ha): 0; Pigweed plant response rating ([17]; 500 g ai/ha): 30; Kochia plant response rating (kochia (Kochia scoparia) [18]; 500 g ai/ha): 0
Cc1nn(C)c(=O)c(-c2ccc(Cl)c3ccsc23)c1O [Compound 55]	0	0	0	0	0	100	0	0	60	20	0	0	0	100	70	10	30	10	60	100	Plant response rating (0 to 100 scale), Foxtail, Giant ([4]; 31 g ai/ha): 0; Plant response rating (0 to 100 scale), Ryegrass, It. ([5]; 31 g ai/ha): 80; Plant response rating (0 to 100 scale), Ragweed ([6]; 31 g ai/ha): 0; Plant response rating (0 to 100 scale), Barnyardgrass ([7]; 31 g ai/ha): 0; Plant response rating (0 to 100 scale), Pigweed ([8]; 31 g ai/ha): 0; Plant response rating (0 to 100 scale), Kochia (kochia (Kochia scoparia) [9]; 31 g ai/ha): 0; Wheat plant response rating ([10]; 31 g ai/ha): 0; Foxtail, Giant plant response rating ([11]; 31 g ai/ha): 0; Corn plant response rating (corn (Zea mays); 31 g ai/ha): 0; Galium plant response rating ([12]; 31 g ai/ha): 80; Ryegrass, It. plant response rating ([13]; 31 g ai/ha): 40; Blackgrass plant response rating ([14]; 31 g ai/ha): 0; Ragweed plant response rating ([15]; 31 g ai/ha): 0; Barnyardgrass plant response rating ([16]; 31 g ai/ha): 0; Pigweed plant response rating ([17]; 31 g ai/ha): 30; Kochia plant response rating (kochia (Kochia scoparia) [18]; 31 g ai/ha): 40
